Measured values as given in patent US9040525B2, “Cyclic amide derivative” (MOCHIDA PHARMACEUTICAL CO., LTD., priority 2010, dated 2015).

Biological target: T1, GPR40 of human origin (Homo sapiens, UniProt O14842)
T1 construct: expressed in transfected cells
Experiment: Agonist action on GPR40 of human origin (Ca2+ fluorescence, CHO cell strain stably expressing GPR40)
Type: cell-based
Conditions: fluctuation of Ca2+ concentration
Experimental: A CHO cell strain stably expressing GPR40 of human origin was used to determine the agonist action of a title compound. This cell strain was seeded in a clear bottom 96 well plate at 2×10^4 cells/100 μL/well. The cell strain was cultured in a CO2 incubator overnight using a Ham's F-12 medium containing a 10% fetal bovine serum, 100 U/mL penicillin, 0.1 mg/mL streptomycin, and 400 μg/mL. Geneticin. Calcium 4 Assay Kit (Molecular Devices) was used as a fluorescent calcium indicator. One mL of 77 mg/mL probenecid (Invitrogen) was added to 100 mL of a calcium indicator solution to prepare a solution (loading solution) mixed with a 20 mM HEPES-containing Hanks' balanced salt solution (HBSS) in equal proportions. To the cells from which the culture solution was removed, 200 μL of the loading solution was added, and the cells were cultured in a CO2 incubator for 1 hour. The title compound was diluted with a 20 mM HEPES-containing HBSS and was added to the cells by 50 μL, and the fluctuation of the Ca^2+concentration was measured by an intracellular ion analyzer. The EC50 value of the title compound was calculated using the dose-response curve of fluorescence intensity variation.

T1 sequence (O14842 whole entry): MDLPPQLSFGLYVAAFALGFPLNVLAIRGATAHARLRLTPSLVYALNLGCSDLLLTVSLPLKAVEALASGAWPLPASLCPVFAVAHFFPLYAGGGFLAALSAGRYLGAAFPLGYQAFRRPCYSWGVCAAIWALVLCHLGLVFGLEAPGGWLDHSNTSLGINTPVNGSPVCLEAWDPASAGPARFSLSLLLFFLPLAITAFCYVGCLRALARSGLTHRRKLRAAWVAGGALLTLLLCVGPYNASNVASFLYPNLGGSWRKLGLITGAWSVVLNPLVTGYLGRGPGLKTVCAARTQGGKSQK

Row | EC50 | SMILES
1 | 300 to 3000 nM | O=C1CC(c2ccc(OC3COc4c3cccc4C(F)(F)F)cc2)[S+]([O-])N1 (centres unmarked) [Example 28]
2 | < 300 nM | Cc1cc(OC[C@H](O)CO)cc(C)c1-c1cccc(COc2ccc(C3CC(=O)N[S+]3[O-])cc2)c1 (stereo partly drawn) [Example 9, 5-[4-[[3-[4-[(2R)-2,3-dihydroxypropoxy]-2,6-dimethylphenyl]phenyl]methoxy]phenyl]-1-oxo-1,2-thiazolidin-3-one]
3 | < 300 nM | O=C1CC(c2ccc(O[C@@H]3CCc4c(Oc5ccccc5)cccc43)cc2)[S+]([O-])N1 (stereo partly drawn) [Example 27, 5-(4-(((R)-4-phenoxy-2,3-dihydro-1H-inden-1-yl)oxy)phenyl)-1-oxo-1,2-thiazolidin-3-one]
4 | < 300 nM | Cc1cccc(C)c1-c1cccc(COc2ccc(C3CC(=O)NS(=O)(=O)N3)cc2)c1 (racemic) [Example 21, 5-[4-[[3-(2,6-dimethylphenyl)phenyl]methoxy]phenyl]-1,1-dioxo-1,2,6-thiadiazinan-3-one]
5 | < 300 nM | Cc1cc(OCCCO)cc(C)c1-c1cccc(COc2ccc(C3CC(=O)N[S+]3[O-])cc2)c1 (centres unmarked) [Example 8, 5-[4-[[3-[4-(3-hydroxypropoxy)-2,6-dimethylphenyl]phenyl]methoxy]phenyl]-1-oxo-1,2-thiazolidin-3-one]
6 | 300 to 3000 nM | Cc1cccc(C)c1-c1cccc(COc2ccc(N3C(C)C(=O)NS3(=O)=O)cc2)c1 (centres unmarked) [Example 18, 5-[4-[[3-(2,6-dimethylphenyl)phenyl]methoxy]phenyl]-4-methyl-1,1-dioxo-1,2,5-thiadiazolidin-3-one]
7 | < 300 nM | Cc1cc(OCCCS(C)(=O)=O)cc(C)c1-c1cccc(COc2ccc(C3CC(=O)N[S+]3[O-])cc2)c1 (centres unmarked) [Example 13, 5-[4-[[3-[2,6-dimethyl 4-(3-methylsulfonylpropoxy)phenyl]phenyl]methoxy]phenyl]-1-oxo-1,2-thiazolidin-3-one]

Row | SMILES | EC50
8 | Cc1cc(OCC[C@@H](C)O)cc(C)c1-c1cccc(COc2ccc(C3CC(=O)N[S+]3[O-])cc2)c1 (mixture of isomers) [Example 12, 5-[4-[[3-[4-[(3R)-3-hydroxybutoxy]-2,6-dimethylphenyl]phenyl]methoxy]phenyl]-1-oxo-1,2-thiazolidin-3-one] | < 300 nM
